Common to all, as to type: cell-based, rhesus monkey (Macaca mulatta)
In series [1] the test system is Rhesus monkey primed iPSCs. The series is described as follows: Conversion of rhesus monkey primed iPSCs to naive iPSCs (conversion condition optimization, TRA-1-81/TBX3 double-positive dome-shaped colonies). As to conditions: for effect on pluripotency / dome-shaped colony formation during naive conversion: primed iPSCs under 2i/LIF-based conditions, Y27632 10 μM, GÖ6983 5 μM. On the procedure: Rhesus monkey primed iPSCs were dissociated into single cells by accutase and reseeded on feeder cells. The converting medium with 4 ng/ml bFGF (R&D Systems), 10 ng/ml human LIF (Millipore), CHIR99021 (3 μM; Stemgent) and PD0325901 (0.5 μM; Stemgent) was changed daily. At approximately day 7 to day 10, dome-shaped colonies were selected and transferred onto fresh feeder cells. Traditional 2i/LIF conditions—10 ng/ml human LIF (Millipore), CHIR99021 (3 μM; Stemgent) and PD0325901 (0.5 μM; Stemgent) were also tested and served as negative control. • (c) Conversion Condition Optimization for Rhesus Monkey Naïve iPSCs
Rhesus monkey primed iPSCs were dissociated into single cells by accutase and reseeded on feeder cells. The basal culture medium with 4 ng/ml bFGF (R&D Systems), 10 ng/ml human LIF (Millipore), CHIR99021 (3 μM; Stemgent) and PD0325901 (0.5 μM; Stemgent) was changed daily. The small molecules tested for culture condition optimization were SB203580 (10 μM; Tocris), SP600125 (10 μM; Tocris), Y27632 (10 μM; Tocris) and GÖ6983 (5 μM; Tocris). After treatment for 8 days, cells were fixed and immunostained for TRA-1-81.
(§1) To detect ALP activity the cells were washed with phosphate-buffered saline three times and stained with BCIP/NBT (Promega) for 15 min. For immunofluorescence, the primary antibodies included those against SSEA-1 (1:50, Chemicon), SSEA-4 (1:20, Santa Cruz Biotechnology), TRA-1-60 (1:50, Santa Cruz Biotechnology), TRA-1-81 (1:50, Santa Cruz Biotechnology), NANOG (1:100, R&D Systems), TBX3 (1:200, Abcam), H3K27me3 (1:200, Millipore), GATA4 (1:200, Santa Cruz Biotechnology), OCT4 (1:200, Abcam) and SOX2 (1:200, Santa Cruz Biotechnology). The secondary antibodies were rhodamine-labeled donkey anti-mouse IgG (1:100, Santa Cruz Biotechnology), rhodamine-labeled donkey anti-rabbit IgG (1:100, Santa Cruz Biotechnology), rhodamine-labeled goat anti-mouse IgM (1:100, Santa Cruz Biotechnology) and rhodamine-labeled donkey anti-goat IgG (1:100, Santa Cruz Biotechnology). DAPI (Roche Applied Science) was used for nuclear staining.

The test system of series [2] is Rhesus monkey primed iPSCs. The series is described as follows: Signaling analysis of rhesus monkey primed iPSCs (TRA-1-81-positive colonies). The note with it: hESCs medium; 5 days; Stattic 1 μM, SB431542 10 μM, SU5402 2 μM, TGF-β1 2 ng/ml. As for the experimental part: (§2) Rhesus monkey primed iPSCs were maintained as described (Liu H et al., 2008). […] The tested signaling modulators were SU5402 (2 μM; Tocris), SB431542 (10 μM; Tocris), Stattic (1 μM; Tocris) and TGF-β1 (2 ng/ml, Peprotech). After treatment for 5 days, cells were fixed and immunostained for TRA-1-81.
as §1

The subject of series [3] is Rhesus monkey naïve iPSCs. The series is described as follows: Signaling analysis of rhesus monkey naïve iPSCs (TRA-1-81-positive dome-shaped colonies). The note with it: optimized conversion conditions; 5 days; Stattic 1 μM, SB431542 10 μM, SU5402 2 μM, TGF-β1 2 ng/ml. On the procedure:
as §2, §1

Where a name gives a salt, the structure may show the parent alone.

As to `COc1ccc2c(c1)c(C1=C(c3c[nH]c4ccccc34)C(=O)NC1=O)cn2CCCN(C)C` [GO{umlaut over ( )} 6983, 3-[1-[3-(Dimethylamino)propyl]-5-methoxy-1H-indol-3-yl]-4-(1H-indol-3-yl)-1H-pyrrole-2,5-dione], the “effect on pluripotency / dome-shaped colony formation during naive conversion” value in series [1] was “induced pronounced differentiation and reduced TRA-1-81 expression in the colonies”. `O=[N+]([O-])c1ccc2c(c1)S(=O)(=O)C=C2` [JAK/STAT3 inhibitor]: the “self-renewal / pluripotency maintenance of primed iPSCs (TRA-1-81-positive colonies, words)” value in series [2] is recorded as “maintained their pluripotent properties”. Moreover, the “self-renewal / pluripotency maintenance of naive iPSCs (TRA-1-81-positive dome-shaped colonies, words)” value in series [3] is “readily differentiated with greatly reduced expression of TRA-1-81”. As for `O=C(NOC[C@H](O)CO)c1ccc(F)c(F)c1Nc1ccc(I)cc1F` [PD0325901, N-[(2R)-2,3-Dihydroxypropoxy]-3,4-difluoro-2-[(2-fluoro-4-iodophenyl)amino]-benzamide], the “effect on pluripotency / dome-shaped colony formation during naive conversion” value in series [1] was “essential for conversion and maintenance of TBX3/TRA-1-81 double-positive dome-shaped colonies”.

Take `NC(=O)c1ccc(-c2nc(-c3ccccn3)c(-c3ccc4c(c3)OCO4)[nH]2)cc1` [SB431542]: the “self-renewal / pluripotency maintenance of primed iPSCs (TRA-1-81-positive colonies, words)” value in series [2] is given as “devastating to primed iPSCs self-renewal”. The “self-renewal / pluripotency maintenance of naive iPSCs (TRA-1-81-positive dome-shaped colonies, words)” value in series [3] is reported as “no effect on rhesus monkey naive iPSCs”. As to `Cc1c[nH]c(/C=C2\C(=O)Nc3ccccc32)c1CCC(=O)O` [SU5402], in series [2], the “self-renewal / pluripotency maintenance of primed iPSCs (TRA-1-81-positive colonies, words)” value is recorded as “few TRA-1-81-positive colonies formed”. Further, in series [3], the “self-renewal / pluripotency maintenance of naive iPSCs (TRA-1-81-positive dome-shaped colonies, words)” value is “few TRA-1-81-positive colonies formed”.

Consider `C[C@@H](N)[C@H]1CC[C@H](C(=O)Nc2ccncc2)CC1` [Y27632, (+)-(R)-trans-4-(1-aminoethyl)-N-(4-pyridyl)cyclohexanecarboxamide+++dihydrochloride], for which the “effect on pluripotency / dome-shaped colony formation during naive conversion” value in series [1] is “induced pronounced differentiation and reduced TRA-1-81 expression in the colonies”. As to “TGF-β: transforming growth factor-β1 (2 ng/ml, Peprotech)”, in series [3], the “self-renewal / pluripotency maintenance of naive iPSCs (TRA-1-81-positive dome-shaped colonies, words)” value is listed as “devastating to the self-renewal of naïve iPSCs”. Take “bFGF: recombinant basic fibroblast growth factor, protein factor”: the “conversion efficiency (TRA-1-81/TBX3 double-positive and dome-shaped colonies of total colonies)” value in series [1] (bFGF (4 ng/ml) added to 2i/LIF conditions, primed iPSCs) is 8%-10%. Further, the “effect on pluripotency / dome-shaped colony formation during naive conversion” value in series [1] is recorded as “Dome-shaped colonies morphologically similar to mouse ESCs appeared”.

Values taken from patent publication US20170191038A1, “TGFß SIGNALING INDEPENDENT NAÏVE INDUCED PLURIPOTENT STEM CELLS, METHODS OF MAKING AND USE” (HONG GUAN Ltd., priority 2014, published 2017).
